Measurements reported in article PMC8301783, “Pitfalls of NMDA Receptor Modulation by Neuroactive Steroids. The Effect of Positive and Negative Modulation of NMDA Receptors in an Animal Model of Schizophrenia” (Biomolecules, 2021).

Target: T1, GABAA receptor (GABAAR)
T1 construct: native receptors in rat cerebral cortex membrane homogenates
Assay: […]TBPS radioligand displacement, rat cortex membranes
Format: binding

## CC(=O)[C@H]1CC[C@H]2[C@@H]3CC[C@@H]4C[C@H](OC(=O)[C@@H](N)CCC(=O)O)CC[C@]4(C)[C@H]3CC[C@]12C [PA-Glu, pregnanolone glutamate]
  IC50: 7.5 µM
